In US8680113B2, “BMI-1 protein expression modulators” (PTC Therapeutics, Inc., priority 2008, dated 2014):

Each compound was assayed on Bmi-1 (assay: Sandwich ELISA Assay (Bmi-1 ELISA in HT-1080 cells)).
Type: cell-based, human
Method in brief: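 Lysate Bmi-1 was quantified against a recombinant GST-Bmi-1 standard (0-8000 pg/mL) by sandwich ELISA read at OD450 with OD570 reference. The ELISA used mouse monoclonal capture, rabbit anti-Bmi-1, HRP anti-rabbit IgG and TMB. Before lysis, HT-1080 cells seeded at 8000/well were exposed to compounds for 40-48 h at 37°C with 0.5% final DMSO.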

IC50, < 500 nM:
CCCc1nc2ccccn2c1-c1csc(Nc2ccc(OCC)cc2)n1 [Cpd 173, N-(4-ethoxyphenyl)-4-(2-propylimidazo[1,2-a]pyridin-3-yl)-1,3-thiazol-2-amine]
CCCc1nc2ccccn2c1-c1csc(Nc2ccc(I)cc2)n1 [Cpd 174, N-(4-iodophenyl)-4-(2-propylimidazo[1,2-a]pyridin-3-yl)-1,3-thiazol-2-amine]
CCCc1nc2ccccn2c1-c1csc(Nc2ccc3c(c2)OCO3)n1 [Cpd 175, N-(1,3-benzodioxol-5-yl)-4-(2-propylimidazo[1,2-a]pyridin-3-yl)-1,3-thiazol-2-amine]
CCCc1nc2ccccn2c1-c1csc(Nc2ccc(N(C)C)cc2)n1 [Cpd 176, N,N-dimethyl-N′-[4-(2-propylimidazo[1,2-a]pyridin-3-yl)-1,3-thiazol-2-yl]benzene-1,4-diamine]
CCCc1nc2ccccn2c1-c1csc(Nc2ccc(C(C)=O)cc2)n1 [Cpd 177, 1-(4-{[4-(2-propylimidazo[1,2-a]pyridin-3-yl)-1,3-thiazol-2-yl]amino}phenyl)ethanone]
CCCc1nc2ccccn2c1-c1csc(Nc2ccc(Cl)cc2)n1 [Cpd 178, N-(4-chlorophenyl)-4-(2-propylimidazo[1,2-a]pyridin-3-yl)-1,3-thiazol-2-amine]
CCCc1nc2ccccn2c1-c1csc(Nc2ccc(Br)cc2)n1 [Cpd 179, N-(4-bromophenyl)-4-(2-propylimidazo[1,2-a]pyridin-3-yl)-1,3-thiazol-2-amine]
CCCc1nc2ccccn2c1-c1csc(Nc2ccc(OC)cc2)n1 [Cpd 180, N-(4-methoxyphenyl)-4-(2-propylimidazo[1,2-a]pyridin-3-yl)-1,3-thiazol-2-amine]
CCCc1nc2ncccn2c1-c1csc(Nc2ccc(OC)c(F)c2)n1 [Cpd 181, N-(3-fluoro-4-methoxyphenyl)-4-(2-propylimidazo[1,2-a]pyrimidin-3-yl)-1,3-thiazol-2-amine]
CCCc1nc2ncccn2c1-c1csc(Nc2ccc3c(c2)OCO3)n1 [Cpd 182, N-(1,3-benzodioxol-5-yl)-4-(2-propylimidazo[1,2-a]pyrimidin-3-yl)-1,3-thiazol-2-amine]
CCCc1nc2ncccn2c1-c1csc(Nc2ccc(N(C)C)cc2)n1 [Cpd 183, N,N-dimethyl-N′-[4-(2-propylimidazo[1,2-a]pyrimidin-3-yl)-1,3-thiazol-2-yl]benzene-1,4-diamine]
CCCc1nc2ncccn2c1-c1csc(Nc2ccc(Br)cc2)n1 [Cpd 184, N-(4-bromophenyl)-4-(2-propylimidazo[1,2-a]pyrimidin-3-yl)-1,3-thiazol-2-amine]
CCCc1nc2ncccn2c1-c1csc(Nc2ccc(I)cc2)n1 [Cpd 185, N-(4-iodophenyl)-4-(2-propylimidazo[1,2-a]pyrimidin-3-yl)-1,3-thiazol-2-amine]
CCCc1nc2ncccn2c1-c1csc(Nc2ccc(OC)cc2)n1 [Cpd 186, N-(4-methoxyphenyl)-4-(2-propylimidazo[1,2-a]pyrimidin-3-yl)-1,3-thiazol-2-amine]
CCCc1nc2ncccn2c1-c1csc(Nc2ccccc2)n1 [Cpd 187, N-phenyl-4-(2-propylimidazo[1,2-a]pyrimidin-3-yl)-1,3-thiazol-2-amine]
COc1cccc(Nc2nc(-c3c(C)nc4ccccn34)cs2)c1 [Cpd 188, N-(3-methoxyphenyl)-4-(2-methylimidazo[1,2-a]pyridin-3-yl)-1,3-thiazol-2-amine]
Cc1ccc(N(C)c2nccc(-c3c(C)nc4ccccn34)n2)cc1 [Cpd 189, N-methyl-4-(2-methylimidazo[1,2-a]pyridin-3-yl)-N-(4-methylphenyl)pyrimidin-2-amine]
Cc1nc2ccccn2c1-c1ccnc(Nc2cccc(O)c2)n1 [Cpd 190, 3-{[4-(2-methylimidazo[1,2-a]pyridin-3-yl)pyrimidin-2-yl]amino}phenol]
Cc1ccc(Nc2nc(-c3c(C)nc4ccccn34)cs2)cc1 [Cpd 191, 4-(2-methylimidazo[1,2-a]pyridin-3-yl)-N-(4-methylphenyl)-1,3-thiazol-2-amine]
CCc1ccc(Nc2nc(-c3c(C)nc4ccccn34)cs2)cc1 [Cpd 192, N-(4-ethylphenyl)-4-(2-methylimidazo[1,2-a]pyridin-3-yl)-1,3-thiazol-2-amine]
CCN(CC)c1ccc(Nc2nc(-c3c(C)nc4ccccn34)cs2)cc1 [Cpd 193, N,N-diethyl-N′-[4-(2-methylimidazo[1,2-a]pyridin-3-yl)-1,3-thiazol-2-yl]benzene-1,4-diamine]
CC(=O)Nc1ccc(Nc2nc(-c3c(C)nc4ccccn34)cs2)cc1 [Cpd 194, N-(4-{[4-(2-methylimidazo[1,2-a]pyridin-3-yl)-1,3-thiazol-2-yl]amino}phenyl)acetamide]
FC(F)(F)c1nc2ccccn2c1-c1csc(Nc2ccc3c(c2)OCO3)n1 [Cpd 195, N-(1,3-benzodioxol-5-yl)-4-[2-(trifluoromethyl)imidazo[1,2-a]pyridin-3-yl]-1,3-thiazol-2-amine]
Cc1nc2ccccn2c1-c1ccnc(Nc2ccc(C(=O)O)cc2)n1 [Cpd 196, 4-{[4-(2-methylimidazo[1,2-a]pyridin-3-yl)pyrimidin-2-yl]amino}benzoic acid]
Cc1nc2ccccn2c1-c1csc(Nc2ccc(Br)cc2)n1 [Cpd 197, N-(4-bromophenyl)-4-(2-methylimidazo[1,2-a]pyridin-3-yl)-1,3-thiazol-2-amine]
Cc1nc2ccccn2c1-c1csc(Nc2ccc(Cl)c(Cl)c2)n1 [Cpd 198, N-(3,4-dichlorophenyl)-4-(2-methylimidazo[1,2-a]pyridin-3-yl)-1,3-thiazol-2-amine]
Cc1nc2ccccn2c1-c1csc(Nc2ccc(Cl)cc2)n1 [Cpd 199, N-(4-chlorophenyl)-4-(2-methylimidazo[1,2-a]pyridin-3-yl)-1,3-thiazol-2-amine]
Cc1nc2ccccn2c1-c1csc(Nc2ccc(Br)cc2Cl)n1 [Cpd 200, N-(4-bromo-2-chlorophenyl)-4-(2-methylimidazo[1,2-a]pyridin-3-yl)-1,3-thiazol-2-amine]
Cc1nc2ccccn2c1-c1csc(Nc2ccc(O)c(O)c2)n1 [Cpd 201, 4-{[4-(2-methylimidazo[1,2-a]pyridin-3-yl)-1,3-thiazol-2-yl]amino}benzene-1,2-diol]
COc1ccc(Nc2nc(-c3c(C)nc4ccccn34)cs2)cc1OC [Cpd 202, N-(3,4-dimethoxyphenyl)-4-(2-methylimidazo[1,2-a]pyridin-3-yl)-1,3-thiazol-2-amine]
Cc1nc2ccccn2c1-c1csc(Nc2ccc(F)cc2F)n1 [Cpd 203, N-(2,4-difluorophenyl)-4-(2-methylimidazo[1,2-a]pyridin-3-yl)-1,3-thiazol-2-amine]
CCOc1ccc(Nc2nc(-c3c(C)nc4ccccn34)cs2)cc1 [Cpd 204, N-(4-ethoxyphenyl)-4-(2-methylimidazo[1,2-a]pyridin-3-yl)-1,3-thiazol-2-amine]
Cc1ccc(Nc2nc(-c3c(C)nc4ccc(Cl)cn34)cs2)c(Br)c1 [Cpd 205, N-(2-bromo-4-methylphenyl)-4-(6-chloro-2-methylimidazo[1,2-a]pyridin-3-yl)-1,3-thiazol-2-amine]
CCN(CC)c1ccc(Nc2nc(-c3c(C)nc4ccc(Cl)cn34)cs2)cc1 [Cpd 206, N′-[4-(6-chloro-2-methylimidazo[1,2-a]pyridin-3-yl)-1,3-thiazol-2-yl]-N,N-diethylbenzene-1,4-diamine]
COc1ccc(Nc2nc(-c3c(C)nc4ccc(Cl)cn34)cs2)cc1OC [Cpd 207, 4-(6-chloro-2-methylimidazo[1,2-a]pyridin-3-yl)-N-(3,4-dimethoxyphenyl)-1,3-thiazol-2-amine]
COc1ccc(Nc2nc(-c3c(C)nc4ccc(Cl)cn34)cs2)c(Br)c1 [Cpd 208, N-(2-bromo-4-methoxyphenyl)-4-(6-chloro-2-methylimidazo[1,2-a]pyridin-3-yl)-1,3-thiazol-2-amine]
Cc1cccc(Nc2nc(-c3c(C)nc4ccc(Cl)cn34)cs2)c1 [Cpd 209, 4-(6-chloro-2-methylimidazo[1,2-a]pyridin-3-yl)-N-(3-methylphenyl)-1,3-thiazol-2-amine]
Cc1nc2ccc(Cl)cn2c1-c1csc(Nc2cccc(O)c2)n1 [Cpd 210, 3-{[4-(6-chloro-2-methylimidazo[1,2-a]pyridin-3-yl)-1,3-thiazol-2-yl]amino}phenol]
CC(=O)c1cccc(Nc2nc(-c3c(C)nc4ccc(Cl)cn34)cs2)c1 [Cpd 211, 1-(3-{[4-(6-chloro-2-methylimidazo[1,2-a]pyridin-3-yl)-1,3-thiazol-2-yl]amino}phenyl)ethanone]
Cc1nc2ccc(Cl)cn2c1-c1csc(Nc2cccc(Br)c2)n1 [Cpd 212, N-(3-bromophenyl)-4-(6-chloro-2-methylimidazo[1,2-a]pyridin-3-yl)-1,3-thiazol-2-amine]
Cc1nc2ccc(Cl)cn2c1-c1csc(Nc2cccc(Cl)c2)n1 [Cpd 213, 4-(6-chloro-2-methylimidazo[1,2-a]pyridin-3-yl)-N-(3-chlorophenyl)-1,3-thiazol-2-amine]
Cc1ccc(Nc2nc(-c3c(C)nc4ccc(Cl)cn34)cs2)c(C)c1 [Cpd 214, 4-(6-chloro-2-methylimidazo[1,2-a]pyridin-3-yl)-N-(2,4-dimethylphenyl)-1,3-thiazol-2-amine]
Cc1nc2ccc(Cl)cn2c1-c1csc(Nc2cccc(F)c2)n1 [Cpd 215, 4-(6-chloro-2-methylimidazo[1,2-a]pyridin-3-yl)-N-(3-fluorophenyl)-1,3-thiazol-2-amine]
